Reference: PubChem BioAssay (NCI)
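These data come from cells grown in 96-well plates and exposed to compound for 48 hours at five concentrations. GI50 marks 50% less growth. TGI: total growth inhibition.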

Assays:
Assay in all cases: growth of human tumour cells (NCI), 48 h
A498 renal = tested on: A498 renal
HOP-62 NSCLC = tested on: HOP-62 NSCLC
NCI-H226 lung = tested on: NCI-H226 lung
ACHN renal = tested on: ACHN renal
OVCAR-5 ovarian = tested on: OVCAR-5 ovarian
RXF 393 renal = tested on: RXF 393 renal
786-0 renal = tested on: 786-0 renal
NCI-H23 lung = tested on: NCI-H23 lung
CAKI-1 renal = tested on: CAKI-1 renal
SNB-19 CNS = tested on: SNB-19 CNS

Structure (SMILES) | TGI (A498 renal) | TGI (HOP-62 NSCLC) | TGI (NCI-H226 lung) | TGI (ACHN renal) | TGI (OVCAR-5 ovarian) | TGI (RXF 393 renal) | TGI (786-0 renal) | TGI (NCI-H23 lung) | TGI (CAKI-1 renal) | TGI (SNB-19 CNS) | GI50 (A498 renal) | GI50 (HOP-62 NSCLC) | GI50 (NCI-H226 lung) | GI50 (ACHN renal) | GI50 (OVCAR-5 ovarian) | GI50 (RXF 393 renal) | GI50 (786-0 renal) | GI50 (NCI-H23 lung) | GI50 (CAKI-1 renal) | GI50 (SNB-19 CNS)
Cc1ccc2ccccc2c1CSc1nc(N)nc2c1ncn2CC(C)C | 99.6 µM | > 100 µM | 72.7 µM | > 100 µM | > 100 µM | > 90.7 µM | > 100 µM | > 100 µM | > 48.9 µM | > 100 µM | – | – | – | – | – | – | – | – | – | –
Cc1cc(N(CCC#N)S(=O)(=O)c2ccccc2)ccc1C=Nc1ccc(C(=O)O)cc1 | 44.5 µM | 46 µM | 40.7 µM | > 33.2 µM | 38.7 µM | 6.72 µM | 16.1 µM | 33.9 µM | 5.73 µM | 44.8 µM | – | – | – | – | – | – | – | – | – | –
CC(=O)OC1CC2(C)C(=CC1C1SCCS1)CCC1C2CCC2(C)C(OC(C)=O)CCC12 (stereo not given) | > 100 µM | > 100 µM | > 100 µM | > 100 µM | > 100 µM | 67.3 µM | > 100 µM | > 100 µM | > 100 µM | > 100 µM | – | – | – | – | – | – | – | – | – | –
Cc1[nH]nc(C(F)(F)F)c1Cc1sc2c(c1C(=O)N1C[C@](C)(O)CO1)c(=O)n(C)c(=O)n2C(C)C | > 100 µM | > 100 µM | > 100 µM | > 100 µM | > 100 µM | > 100 µM | > 100 µM | > 100 µM | > 100 µM | > 100 µM | 47.3 µM | > 100 µM | > 100 µM | > 100 µM | > 100 µM | > 100 µM | > 100 µM | > 100 µM | > 100 µM | > 100 µM
OC(c1cc(C(F)(F)F)nc2c(Cl)cc(Cl)cc12)C1CCCCN1 (stereo not given) | > 51.4 µM | 18.5 µM | 35.1 µM | > 43.7 µM | > 50.4 µM | 18.8 µM | > 38.1 µM | 23.8 µM | 21.2 µM | > 52.3 µM | – | – | – | – | – | – | – | – | – | –
O=C1c2ccccc2C(=O)N1CC#CCO | > 100 µM | > 100 µM | > 100 µM | > 100 µM | > 100 µM | > 100 µM | > 100 µM | > 100 µM | > 100 µM | > 100 µM | – | – | – | – | – | – | – | – | – | –
Cn1nc(C(F)(F)F)cc1-c1cc(Cl)c(OCc2ccc(Cl)cc2)c(-c2ccc(Cl)c(C(F)(F)F)c2)c1O | 1.09 µM | 3.3 µM | 4.3 µM | 4.6 µM | 7.4 µM | 3.11 µM | 2.63 µM | 3.86 µM | 3.49 µM | 6.72 µM | 0.251 µM | 1.26 µM | 1.36 µM | 1.39 µM | 1.72 µM | 1.01 µM | 1.07 µM | 0.965 µM | 1.11 µM | 1.16 µM
Clc1cnc(Nc2ccc(OCCN3CCCC3)cc2)nc1NCc1ccco1 | 3.88 µM | 6.58 µM | 11.3 µM | 26.4 µM | > 100 µM | 3.24 µM | 13.3 µM | 5.75 µM | 26.6 µM | 13.5 µM | 1.45 µM | 2.24 µM | 0.671 µM | 2.37 µM | 1.95 µM | 1.25 µM | 3.15 µM | 1.84 µM | 1.63 µM | 3.51 µM
